pIC50: −log10 of the molar value.
The compounds below were run on HCV replicon (Replicon 1a) (assay: anti-HCV activity in Huh-7 cell line harboring a HCV replicon (Replicon 1a)). Settings: Hepatitis C virus, Huh-7, 72 h, read-out: Replicon 1a % inhibition at 1 μM, 1 μM; human hepatoma Huh-7 HCV replicon cells, 3 days, luciferase readout.
Assay type: cell-based
`CC(C)[C@H](NC(=O)[C@H](/C=C/c1ccc2ccc([C@@H](C)O)nc2c1)[C@H](C)O)C(=O)N[C@@H](C)C(=O)N1CCC[C@@H](C(=O)O)N1` [Compound 166] was tested, and the inhibition at 1 µM was 0%.
In the case of `CC(C)[C@@H]1NC(=O)C(C)(C)/C=C/c2ccc3ccc(nc3c2)[C@@H](C)OC(=O)[C@@H]2CCCN(N2)C(=O)[C@H](Cc2c[nH]cn2)NC1=O` [Compound 95], the inhibition at 1 µM was 68%.
`CC(C)[C@@H]1NC(=O)C/C=C/c2ccc3nnc(cc3c2)[C@@H](C)OC(=O)[C@@H]2CCCN(N2)C(=O)[C@H](C)NC1=O` [Compound 32] showed an inhibition at 1 µM of 71%.
Work on `Cc1cc2ccc(/C=C/C(C)(C)C(=O)N[C@H](C(=O)N[C@@H](C)C(=O)N3CCC[C@@H](C(=O)O)N3)C(C)C)cc2nc1[C@@H](C)O` [Compound 162] yielded an inhibition at 1 µM of 0%.
Compound `CC(C)[C@@H]1NC(=O)C(C)(C)/C=C/c2ccc3ccc(nc3c2)[C@@H](C)OC(=O)[C@@H]2CCCN(N2)C(=O)[C@H](Cc2cn(C(c3ccccc3)(c3ccccc3)c3ccccc3)cn2)NC1=O` [Compound 94] has an inhibition at 1 µM of 96%.
`CCCC(=O)O[C@@H](C)[C@H]1/C=C/c2ccc3ccc(nc3c2)[C@@H](C)OC(=O)[C@@H]2CCCN(N2)C(=O)[C@H](C)NC(=O)[C@H](C(C)C)NC1=O` [Compound 172] gave an inhibition at 1 µM of 100%.
`CC(C)[C@@H]1NC(=O)C(C)(C)/C=C/c2ccc3ccc(nc3c2)[C@@H](C)OC(=O)[C@@H]2CCCN(N2)C(=O)[C@H](Cc2cscn2)NC1=O` [Compound 110] showed an inhibition at 1 µM of 100%.
Work on `CC(C)[C@@H]1NC(=O)C(C)(C)COc2cc3cc(ccc3cn2)[C@@H](C)OC(=O)[C@@H]2CCCN(N2)C(=O)[C@H](C)NC1=O` (single isomer, unassigned) [Compound 68] yielded an inhibition at 1 µM of 91%.
`CC(C)[C@@H]1NC(=O)C(C)(C)CCc2ccc3cnc(cc3c2)[C@@H](C)OC(=O)[C@@H]2CCCN(N2)C(=O)[C@H](C)NC1=O` [Compound 18] was tested, and the inhibition at 1 µM was 94%.
With `CC(C)[C@@H]1NC(=O)C2(/C=C/c3ccc4ccc(nc4c3)[C@@H](C)OC(=O)[C@@H]3CCCN(N3)C(=O)[C@H](C)NC1=O)CCN(S(=O)(=O)CC1CC1)CC2` [Compound 134] the inhibition at 1 µM was 99%.
`CC(C)[C@@H]1NC(=O)C2(CCOCC2)CCc2cc3cc(ccc3cn2)[C@@H](C)OC(=O)[C@@H]2CCCN(N2)C(=O)[C@H](C)NC1=O` [Compound 60] showed an inhibition at 1 µM of 65%.
`C[C@@H]1NC(=O)[C@H]([C@@H](C)O)NC(=O)C/C=C/c2cc3cc(ccc3cn2)[C@@H](C)OC(=O)[C@@H]2CCCN(N2)C1=O` [Compound 48] showed an inhibition at 1 µM of 40%.
`CC(C)[C@@H]1NC(=O)C(C)(C)/C=C/c2ccc3ccc(nc3c2)[C@@H](C)OC(=O)[C@]2(C)CCCN(N2)C(=O)[C@H](C)NC1=O` [Compound 119] was tested, and the inhibition at 1 µM was 98%.
`CC(C)[C@@H]1NC(=O)C2(/C=C/c3ccc4ccc(nc4c3)[C@@H](C)OC(=O)[C@@H]3CCCN(N3)C(=O)[C@H](C)NC1=O)CCOCC2` [Compound 153] showed an inhibition at 1 µM of 100%.
For `CC(C)[C@H](N)C(=O)O[C@@H](C)[C@H]1/C=C/c2ccc3ccc(nc3c2)[C@@H](C)OC(=O)[C@@H]2CCCN(N2)C(=O)[C@H](C)NC(=O)[C@H](C(C)C)NC1=O` [Compound 167], the inhibition at 1 µM was 97%.
With `CC(C)[C@@H]1NC(=O)C(C)(C)COc2cc3cc(ccc3cn2)[C@@H](C)OC(=O)[C@H]2CCCN(N2)C(=O)[C@H](C)NC1=O` [Compound 69] the inhibition at 1 µM was 19%.
Work on `C[C@@H]1NC(=O)[C@H](CCc2ccccc2)NC(=O)C/C=C/c2cc3cc(ccc3cn2)[C@@H](C)OC(=O)[C@@H]2CCCN(N2)C1=O` [Compound 56] yielded an inhibition at 1 µM of 47%.
With `CC(C)[C@@H]1NC(=O)C2(/C=C/c3ccc4ccc(nc4c3)[C@@H](C)OC(=O)[C@@H]3CCCN(N3)C(=O)[C@H](C)NC1=O)CCN(C(=O)N1CCCC1)CC2` [Compound 133] the inhibition at 1 µM was 98%.
For `CC(C)[C@@H]1NC(=O)CCC(C)(C)C/C=C/c2cccc(c2)[C@@H](C)NC(=O)[C@@H]2CCCN(N2)C(=O)[C@H](C)NC1=O` [Compound 4], the inhibition at 1 µM was 58%.
`CC[C@H](C)[C@@H]1NC(=O)C(C)(C)/C=C/c2ccc3ccc(nc3c2)[C@@H](C)OC(=O)[C@@H]2CCCN(N2)C(=O)[C@H](C)NC1=O` [Compound 125] was tested, and the inhibition at 1 µM was 100%.
Work on `CC(=O)O[C@@H](C)[C@H]1/C=C/c2ccc3ccc(nc3c2)[C@@H](C)OC(=O)[C@@H]2CCCN(N2)C(=O)[C@H](C)NC(=O)[C@H](C(C)C)NC1=O` [Compound 171] yielded an inhibition at 1 µM of 99%.

These compounds were tested against cyclophilin A (Homo sapiens, UniProt P62937) (assay: Cyclophilin A TR-FRET competitive binding assay). Settings: IC50 ranges; competition with CsA-Cy5 for His-tagged CypA, two-hour incubation; read-out: TR-FRET.
Chain of cyclophilin A (P62937 whole entry, species assumed): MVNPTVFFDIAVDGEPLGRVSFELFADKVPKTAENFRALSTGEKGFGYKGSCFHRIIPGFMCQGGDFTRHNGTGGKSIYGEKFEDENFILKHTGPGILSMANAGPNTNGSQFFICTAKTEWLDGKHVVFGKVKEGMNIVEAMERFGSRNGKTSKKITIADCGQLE
Description: Cyclophilin A TR-FRET Competitive Binding Assay
Inhibitor potency was measured using a competitive binding assay with a time-resolved fluorescence resonance energy transfer (TR-FRET) readout. […] An IC50 value was calculated using a four-parameter logistic fit.
`CC(C)[C@H](NC(=O)[C@H](/C=C/c1ccc2ccc([C@@H](C)O)nc2c1)[C@H](C)O)C(=O)N[C@@H](C)C(=O)N1CCC[C@@H](C(=O)O)N1` [Compound 166] was tested, and the pIC50 was 5.00 to 6.00.
Work on `CC(C)[C@@H]1NC(=O)C(C)(C)/C=C/c2ccc3ccc(nc3c2)[C@@H](C)OC(=O)[C@@H]2CCCN(N2)C(=O)[C@H](Cc2c[nH]cn2)NC1=O` [Compound 95] yielded a pIC50 of over 7.00.
`CC(C)[C@@H]1NC(=O)C/C=C/c2ccc3nnc(cc3c2)[C@@H](C)OC(=O)[C@@H]2CCCN(N2)C(=O)[C@H](C)NC1=O` [Compound 32] gave a pIC50 of over 7.00.
`Cc1cc2ccc(/C=C/C(C)(C)C(=O)N[C@H](C(=O)N[C@@H](C)C(=O)N3CCC[C@@H](C(=O)O)N3)C(C)C)cc2nc1[C@@H](C)O` [Compound 162] showed a pIC50 of 5.00 to 6.00.
Compound `CC(C)[C@@H]1NC(=O)C(C)(C)/C=C/c2ccc3ccc(nc3c2)[C@@H](C)OC(=O)[C@@H]2CCCN(N2)C(=O)[C@H](Cc2cn(C(c3ccccc3)(c3ccccc3)c3ccccc3)cn2)NC1=O` [Compound 94] has a pIC50 of over 7.00.
`CCCC(=O)O[C@@H](C)[C@H]1/C=C/c2ccc3ccc(nc3c2)[C@@H](C)OC(=O)[C@@H]2CCCN(N2)C(=O)[C@H](C)NC(=O)[C@H](C(C)C)NC1=O` [Compound 172] gave a pIC50 of over 7.00.
For `CC(C)[C@@H]1NC(=O)C(C)(C)/C=C/c2ccc3ccc(nc3c2)[C@@H](C)OC(=O)[C@@H]2CCCN(N2)C(=O)[C@H](Cc2cscn2)NC1=O` [Compound 110], the pIC50 was over 7.00.
Compound `CC(C)[C@@H]1NC(=O)C(C)(C)COc2cc3cc(ccc3cn2)[C@@H](C)OC(=O)[C@@H]2CCCN(N2)C(=O)[C@H](C)NC1=O` (single isomer, unassigned) [Compound 68] has a pIC50 of over 7.00.
`CC(C)[C@@H]1NC(=O)C(C)(C)CCc2ccc3cnc(cc3c2)[C@@H](C)OC(=O)[C@@H]2CCCN(N2)C(=O)[C@H](C)NC1=O` [Compound 18] showed a pIC50 of over 7.00.
`CC(C)[C@@H]1NC(=O)C2(/C=C/c3ccc4ccc(nc4c3)[C@@H](C)OC(=O)[C@@H]3CCCN(N3)C(=O)[C@H](C)NC1=O)CCN(S(=O)(=O)CC1CC1)CC2` [Compound 134] showed a pIC50 of over 7.00.
Work on `CC(C)[C@@H]1NC(=O)C2(CCOCC2)CCc2cc3cc(ccc3cn2)[C@@H](C)OC(=O)[C@@H]2CCCN(N2)C(=O)[C@H](C)NC1=O` [Compound 60] yielded a pIC50 of 6.00 to 7.00.
`C[C@@H]1NC(=O)[C@H]([C@@H](C)O)NC(=O)C/C=C/c2cc3cc(ccc3cn2)[C@@H](C)OC(=O)[C@@H]2CCCN(N2)C1=O` [Compound 48] showed a pIC50 of over 7.00.
`CC(C)[C@@H]1NC(=O)C(C)(C)/C=C/c2ccc3ccc(nc3c2)[C@@H](C)OC(=O)[C@]2(C)CCCN(N2)C(=O)[C@H](C)NC1=O` [Compound 119] showed a pIC50 of over 7.00.
`CC(C)[C@@H]1NC(=O)C2(/C=C/c3ccc4ccc(nc4c3)[C@@H](C)OC(=O)[C@@H]3CCCN(N3)C(=O)[C@H](C)NC1=O)CCOCC2` [Compound 153] was tested, and the pIC50 was over 7.00.
Work on `CC(C)[C@H](N)C(=O)O[C@@H](C)[C@H]1/C=C/c2ccc3ccc(nc3c2)[C@@H](C)OC(=O)[C@@H]2CCCN(N2)C(=O)[C@H](C)NC(=O)[C@H](C(C)C)NC1=O` [Compound 167] yielded a pIC50 of over 7.00.
`CC(C)[C@@H]1NC(=O)C(C)(C)COc2cc3cc(ccc3cn2)[C@@H](C)OC(=O)[C@H]2CCCN(N2)C(=O)[C@H](C)NC1=O` [Compound 69] was tested, and the pIC50 was 5.00 to 6.00.
For `C[C@@H]1NC(=O)[C@H](CCc2ccccc2)NC(=O)C/C=C/c2cc3cc(ccc3cn2)[C@@H](C)OC(=O)[C@@H]2CCCN(N2)C1=O` [Compound 56], the pIC50 was 6.00 to 7.00.
`CC(C)[C@@H]1NC(=O)C2(/C=C/c3ccc4ccc(nc4c3)[C@@H](C)OC(=O)[C@@H]3CCCN(N3)C(=O)[C@H](C)NC1=O)CCN(C(=O)N1CCCC1)CC2` [Compound 133] was tested, and the pIC50 was over 7.00.
`CC(C)[C@@H]1NC(=O)CCC(C)(C)C/C=C/c2cccc(c2)[C@@H](C)NC(=O)[C@@H]2CCCN(N2)C(=O)[C@H](C)NC1=O` [Compound 4] showed a pIC50 of 6.00 to 7.00.
Work on `CC[C@H](C)[C@@H]1NC(=O)C(C)(C)/C=C/c2ccc3ccc(nc3c2)[C@@H](C)OC(=O)[C@@H]2CCCN(N2)C(=O)[C@H](C)NC1=O` [Compound 125] yielded a pIC50 of over 7.00.
`CC(=O)O[C@@H](C)[C@H]1/C=C/c2ccc3ccc(nc3c2)[C@@H](C)OC(=O)[C@@H]2CCCN(N2)C(=O)[C@H](C)NC(=O)[C@H](C(C)C)NC1=O` [Compound 171] showed a pIC50 of over 7.00.
